This note sets out measurements from ChEMBL document CHEMBL1156967 (Bioorg Med Chem Lett, 2010).

Assay [1] has as its system Rattus norvegicus. Description: Antiinflammatory activity in Lewis rat plasma assessed as reduction in LPS-stimulated TNFalpha accumulation at 5 mg/kg, ig administered 4 hrs before LPS challenge measured after […] by ELISA. The class given is functional. The following applies: po, route intragastric. (In general: ELISA stands for enzyme-linked immunosorbent assay.)
The target in assay [2] is Mitogen-activated protein kinase 11 (Homo sapiens, UniProt Q15759). Briefly: Inhibition of p38beta assessed as gamma-[33P]ATP incorporation by scintillation counting.
Mitogen-activated protein kinase 11, sequence (Q15759 whole entry): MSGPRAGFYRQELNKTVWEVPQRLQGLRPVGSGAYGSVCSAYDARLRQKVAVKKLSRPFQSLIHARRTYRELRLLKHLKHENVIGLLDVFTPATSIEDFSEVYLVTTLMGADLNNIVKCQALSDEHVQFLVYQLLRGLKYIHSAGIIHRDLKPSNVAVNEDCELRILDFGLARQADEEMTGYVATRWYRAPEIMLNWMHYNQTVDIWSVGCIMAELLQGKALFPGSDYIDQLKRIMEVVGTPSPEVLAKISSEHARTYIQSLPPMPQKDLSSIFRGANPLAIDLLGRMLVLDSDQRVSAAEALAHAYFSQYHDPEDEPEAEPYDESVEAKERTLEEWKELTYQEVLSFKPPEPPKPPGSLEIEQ
In assay [3] the target is Voltage-gated inwardly rectifying potassium channel KCNH2 (Homo sapiens, UniProt Q12809). Description: Inhibition of human ERG by patch clamp technique.
Voltage-gated inwardly rectifying potassium channel KCNH2, sequence (Q12809 whole entry): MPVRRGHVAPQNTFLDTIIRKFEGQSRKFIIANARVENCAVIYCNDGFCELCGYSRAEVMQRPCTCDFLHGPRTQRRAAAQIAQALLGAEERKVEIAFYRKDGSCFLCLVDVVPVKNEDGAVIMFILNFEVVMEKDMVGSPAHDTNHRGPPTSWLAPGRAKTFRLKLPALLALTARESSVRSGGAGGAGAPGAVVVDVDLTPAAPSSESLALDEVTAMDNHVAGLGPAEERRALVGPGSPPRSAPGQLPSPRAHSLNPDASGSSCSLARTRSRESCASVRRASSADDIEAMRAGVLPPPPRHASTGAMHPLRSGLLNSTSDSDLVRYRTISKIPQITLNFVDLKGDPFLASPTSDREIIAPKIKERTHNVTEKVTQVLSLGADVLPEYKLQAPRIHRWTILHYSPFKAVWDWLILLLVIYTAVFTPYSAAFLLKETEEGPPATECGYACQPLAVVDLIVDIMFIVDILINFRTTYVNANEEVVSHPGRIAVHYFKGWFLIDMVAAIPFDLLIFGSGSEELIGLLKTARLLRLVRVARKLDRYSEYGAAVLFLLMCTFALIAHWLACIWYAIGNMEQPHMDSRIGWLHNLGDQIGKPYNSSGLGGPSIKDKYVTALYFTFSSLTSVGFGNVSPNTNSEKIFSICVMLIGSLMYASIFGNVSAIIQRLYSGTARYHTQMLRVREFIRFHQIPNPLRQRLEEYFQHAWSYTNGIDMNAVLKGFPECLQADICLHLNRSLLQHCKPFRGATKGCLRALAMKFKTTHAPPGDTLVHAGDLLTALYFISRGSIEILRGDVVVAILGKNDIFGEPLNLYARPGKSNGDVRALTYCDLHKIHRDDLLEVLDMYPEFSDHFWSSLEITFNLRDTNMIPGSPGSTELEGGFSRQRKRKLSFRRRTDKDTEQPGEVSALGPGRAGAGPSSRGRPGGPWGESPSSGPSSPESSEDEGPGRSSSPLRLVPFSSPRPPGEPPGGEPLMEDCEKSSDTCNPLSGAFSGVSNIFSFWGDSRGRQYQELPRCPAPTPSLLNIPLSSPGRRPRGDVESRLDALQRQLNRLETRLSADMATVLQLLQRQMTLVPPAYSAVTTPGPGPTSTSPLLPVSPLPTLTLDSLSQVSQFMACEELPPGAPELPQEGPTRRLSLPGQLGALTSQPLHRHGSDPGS

In the case of `CC(=O)N1CCC(c2[nH]nc(-c3ccc(F)cc3)c2-c2ccncc2)CC1`, in assay [1], the inhibition in vivo – broadly, the change of the read-out against control, counted positive when it falls – at 5 mg/kg was found to be 41%. Further, the IC50 – broadly, the point on the concentration scale where inhibition reaches its midpoint – in assay [2] came out at 2770 nM; in assay [3] it was 790 nM.
